In US20120238511A1, “2-DEOXY-D-GLUCOSE FORMULATIONS FOR PREVENTION OR TREATMENT OF NEURODEGENERATIVE DISEASES” (University of Southern California, priority 2011, published 2012) one finds Tau phosphorylation and amyloid production data, which are given here for one compound.

This assay deals with triple transgenic AD (3×Tg-AD) mouse model. Put plainly: 2-DG diet in triple transgenic Alzheimer's mouse model. To be noted: low-density gene array (LDA array) analyses. The assay is classed as in vivo. As to the method:
It has been shown that mitochondrial bioenergetic deficits precede Alzheimer's disease (AD) pathology in the triple transgenic AD (3×Tg-AD) mouse model. […] In the current study, the impact of 2-deoxy-D-glucose (2-DG), a compound known to regulate glucose metabolism and induce ketogenesis, on both brain bioenergetics and AD pathology was evaluated.
3×Tg-AD female at 6 month were fed with either a regular diet (AIN-93G) or diet containing 0.04% 2-DG for 7 weeks.

Each structure is given as a SMILES string.

As to `OCC1OC(O)CC(O)C1O` [2-DG, 2-deoxy-D-glucose], the Tau phosphorylation result is “reduced” and the amyloid production entry is recorded as “decreased”.
